Data from article PMC8041304, “Halogen Atoms in the Protein–Ligand System. Structural and Thermodynamic Studies of the Binding of Bromobenzotriazoles by the Catalytic Subunit of Human Protein Kinase CK2” (The Journal of Physical Chemistry. B, 2021).
“And” between values parts separate entries of the source, which are not always exact repeats. Equal entries are not always repeated. Where two headings read alike, the source gives them in different places.

What was measured:
[1] = biological target: T1, hCK2α (Homo sapiens, UniProt P68400); parameters: method as in earlier work; details: ref 6 (of the supplement); read-out: KATP, dissociation constant of ATP; cited from earlier work
T1 construct: made in house

[2] = biological target: T1, hCK2α; assay: Fluorescence-monitored thermal denaturation (nanoDSF) of hCK2α complexes; assay type: binding; details: protein 2.5 μM, ligand 25 μM; for Tm (°C) at pH 7.5: hCK2α in complex with ligand; for ΔTm (°C) at pH 7.5: unfolding temperature with ligand minus without
Description: The samples were loaded into nanoDSF grade Standard Capillaries (NanoTemper Technologies) and analyzed using the Prometheus NT.48 nanoDSF device (NanoTemper Technologies). Thermal unfolding of the protein was monitored using a linear thermal ramp (1 °C·min^–1; 20–80 °C) with an excitation power of 30%.
This prompted us to measure the thermal stabilities of hCK2α and its complexes at pH 7.5 by fluorescence-monitored thermal denaturation (nanoDSF) (Table 2).

[3] = biological target: T1, hCK2α; assay: Isothermal titration calorimetry (MicroCal iTC200), reverse titration; assay type: binding; details: for ΔGbind, free energy of binding: ITC; for ΔSrt, entropic term for loss of ligand rotational and translational degrees of freedom: calculated from ligand molecular mass; for Ts, temperature at which the entropy change upon ligand binding is zero: estimated from the linear fit of ΔS(T); for ΔSHE(Ts), hydrophobic-effect contribution to the entropy change upon binding: ≈ 1.35∙ΔCp,bind∙ln(Ts/386)
Description: ITC measurements were carried out using the MicroCal iTC200 (Malvern) calorimeter. The hCK2α samples were diluted to the required protein concentration with the 25 mM Tris-HCl pH 8 buffer containing 0.5 M NaCl. Stock ligand solutions were diluted with the appropriate DMSO volume prior to mixing with the buffer to obtain the required ligand concentration and a final DMSO content of 1%. Due to the limited solubility of halogenated benzotriazoles, all titration experiments were performed in the reverse mode, in which buffered ligand solution was placed in the calorimetric cell and titrated with the protein solution.[35]
(§1) In all experiments the maximum ligand concentration of 10 μM was used to minimize a possible contribution of the secondary binding site.

[4] = Density measurements: partial molar volume and thermal expansivity of the solute; assay type: physicochemical; details: 50 mM phosphate buffer pH 11; for α2^0, thermal volumetric expansivity of the solute: 20, 25, 30 °C; for V2^0, partial molar volume: 25 °C
Description: Partial molar volumes were estimated with a density meter Anton Paar DMA 5000 M at 20, 25, and 30 °C from the concentration–density dependency for compounds dissolved in 50 mM phosphate buffer (pH 11). The experimental procedure and the data analysis method were described previously.[36],[57],[58] The partial molar volume at 25 °C (V2^0) and thermal volumetric expansivity of the solute (α2^0 = ∂V2^0/∂T) were estimated globally from two independent dilution series. The density of pure solvent (d0) was extrapolated individually for each experimental condition (i.e., temperature and buffer preparation). The change of d0 with temperature was further used to determine thermal volumetric expansivity coefficient of the bulk buffer according to the formula α0 = −(∂d0/∂T)/d0.
According to the Lum, Chandler, and Weeks (LCW) theory, the hydrophobic interactions scale for solutes of subnanometer size with the volume of the molecule rather than its surface.[61] We have recently proposed partial molar volume as the extensive parameter to describe both the solute volume and the solute-induced reorganization of the solvation shell.[36],[57],[58],[62],[63] By analyzing density data at three temperatures (20, 25, and 30 °C), we could estimate the partial molar volume of the ligand (V2^0) and the bulk solvent density (d0(T)). We could further separate the thermal expansivity coefficient of the bulk solvent (α0) and the apparent expansivity of the solute (α2^0). The latter parameter is comprised mainly of the thermal expansion effect of the hydration shell. The values of α0 fell within the narrow range of (26.9 ± 1.3) × 10^–5 K^–1, which is close to the literature data for water (25.72 × 10^–5 K^–1 at 25 °C).[64] […] The solute thermal expansivity (α2^0), together with the change of isobaric heat capacity upon ligand binding (ΔCp,bind), has already been associated with the properties of the solvation layer.[65],[66] Importantly, α2^0 is proportional to the partial molar volume V2^0 (Figure 3D). So, V2^0 may be another descriptor of hydrophobic interactions. Consequently, the volume-normalized solute expansivity coefficient (α = α2^0/V2^0) is almost the same for all studied bromobenzotriazoles (232 ± 22 × 10^–5 K^–1). Importantly, this value substantially exceeds the thermal expansivity coefficient of the bulk buffer (α0 = 26.9 ± 1.3 × 10^–5 K^–1), clearly confirming that water organization changes with temperature more near the solute surface than in the bulk.

[5] = biological target: T1, hCK2α; parameters: method as in PMID 25891901; details: cited from earlier work
[6] = biological target: T1, hCK2α; parameters: method as in PMID 23155426; details: pH 7.5; cited from earlier work
[7] = parameters: method as in doi:10.1016/j.molliq.2019.111527; details: calculated water–octanol partition coefficient; cited from earlier work
[8] = parameters: method as in PMID 32162783; details: HPLC-derived hydrophobicity; cited from earlier work
[9] = parameters: method as in PMID 22632480; details: pH 8.0; cited from earlier work
[10] = biological target: T1, hCK2α; assay: Isothermal titration calorimetry (NanoITC); assay type: binding; details: pH 8
Description: as §1

[11] = biological target: T1, hCK2α; parameters: method as in PMID 32162783; details: cited from earlier work
[12] = iTC200, 20 °C, pH 8, independent experiments separately evaluated
[13] = iTC200, 25 °C, pH 8, independent experiments separately evaluated
[14] = iTC200, 30 °C, pH 8, independent experiments separately evaluated
[15] = iTC200, 35 °C, pH 8, independent experiments separately evaluated

T1 sequence (P68400 whole entry): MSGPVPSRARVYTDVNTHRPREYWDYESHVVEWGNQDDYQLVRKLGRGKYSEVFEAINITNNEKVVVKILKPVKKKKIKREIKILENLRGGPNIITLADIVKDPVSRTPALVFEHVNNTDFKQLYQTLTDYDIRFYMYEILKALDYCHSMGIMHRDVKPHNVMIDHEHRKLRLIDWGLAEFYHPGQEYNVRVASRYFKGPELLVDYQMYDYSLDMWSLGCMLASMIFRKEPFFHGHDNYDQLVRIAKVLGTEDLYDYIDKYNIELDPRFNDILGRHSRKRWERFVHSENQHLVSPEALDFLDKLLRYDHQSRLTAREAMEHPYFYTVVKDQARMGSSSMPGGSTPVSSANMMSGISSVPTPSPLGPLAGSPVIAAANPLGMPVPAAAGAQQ

| Compound | Tm (°C) at pH 7.5 [2] | ΔTm (°C) at pH 7.5 [2] | ΔGbind, free energy of binding ([3]; 25 °C, pH 8) | ΔSrt, entropic term for loss of ligand rotational and translational degrees of freedom [3] | Ts, temperature at which the entropy change upon ligand binding is zero [3] | Kd [3, 12] | Kd [3, 13] | Kd [3, 14] | Kd [3, 15] | ΔSHE(Ts), hydrophobic-effect contribution to the entropy change upon binding [3] | α2^0, thermal volumetric expansivity of the solute [4] | V2^0, partial molar volume [4] | ΔTm (°C) at pH 8 [5] | IC50 [6] | log P [7] | log(τ) [8] | fraction of the ligand that is neutral [9] | other results |
| --- | --- | --- | --- | --- | --- | --- | --- | --- | --- | --- | --- | --- | --- | --- | --- | --- | --- | --- |
| Nc1ncnc2c1ncn2[C@@H]1O[C@H](COP(=O)(O)OP(=O)(O)OP(=O)(O)O)[C@@H](O)[C@H]1O [ATP] | – | – | – | – | – | – | – | – | – | – | – | – | – | – | – | – | – | Kd [1]: 4300 ± 1800 nM |
| Brc1ccc2n[nH]nc2c1 [5-BrBt] | 47.17 ± 0.02 °C | 2.0 ± 0.1 °C | –34.4 ± 0.6 kJ·mol^–1 | -277 J∙mol-1∙K-1 | 281 ± 152 K | 730 nM and 550 nM | 930 ± 280 nM | 1270 nM and 990 nM | 1330 nM and 1890 nM | 120 ± 56 J∙mol-1∙K-1 | 0.14 ± 0.20 cm^3·mol^–1·K^–1 | 132.7 ± 0.8 cm^3·mol^–1 | 1.8 ± 0.1 °C | 26 ± 3 µM | 1.73 | –0.41 | 0.26 | Kd ([3]; iTC200, 15 °C, pH 8, independent experiments separately evaluated): 880 nM and 490 nM; ΔG [3, 13]: -8.22 ± 0.14 kcal/mol and -8.22 ± 0.359 kcal/mol; ΔSother, entropy change assigned to all other processes accompanying ligand binding ([3]; ΔSrt + ΔSHE(Ts) + ΔSother = 0): 157 ± 56 J∙mol-1∙K-1 |
| Brc1cc2nn[nH]c2cc1Br [5,6-Br2Bt, 5,6-bromobenzotriazole] | 52.96 ± 0.05 °C | 7.8 ± 0.1 °C | –40.9 ± 0.3 kJ·mol^–1 | -291 J∙mol-1∙K-1 | 268 ± 42 K | 32 nM and 33 nM | 50 nM and 27 nM | 84 nM and 69 nM | 108 nM and 115 nM | 291 ± 34 J∙mol-1∙K-1 | 0.33 ± 0.14 cm^3·mol^–1·K^–1 | 150.0 ± 0.6 cm^3·mol^–1 | 7.4 ± 0.1 °C | 0.56 ± 0.02 µM | 2.36 | –0.30 | 0.08 | Kd ([10]; 15 °C): 59 ± 49 nM; ΔG ([10]; 15 °C): -9.54 ± 0.478 kcal/mol; ΔH ([10]; 15 °C): -13.5 ± 1.12 kcal/mol; ΔS ([10]; 15 °C): -58 ± 18 J·mol-1·K-1; Kd ([10]; 20 °C): 60 ± 54 nM; ΔG ([10]; 20 °C): -9.7 ± 0.526 kcal/mol; ΔH ([10]; 20 °C): -14.8 ± 1.34 kcal/mol; ΔS ([10]; 20 °C): -73 ± 21 J·mol-1·K-1; Kd ([10]; 25 °C): 46 ± 26 nM; ΔG ([10]; 25 °C): -10 ± 0.335 kcal/mol; ΔH ([10]; 25 °C): -16.9 ± 0.765 kcal/mol; ΔS ([10]; 25 °C): -97 ± 12 J·mol-1·K-1; Kd ([10]; 30 °C): 150 ± 120 nM; ΔG ([10]; 30 °C): -9.44 ± 0.454 kcal/mol; ΔH ([10]; 30 °C): -18.3 ± 0.693 kcal/mol; ΔS ([10]; 30 °C): -122 ± 11 J·mol-1·K-1; Kd ([10]; 35 °C): 93 ± 49 nM; ΔG ([10]; 35 °C): -9.92 ± 0.311 kcal/mol; ΔH ([10]; 35 °C): -20.8 ± 1.86 kcal/mol; ΔS ([10]; 35 °C): -148 ± 26 J·mol-1·K-1 |
| Clc1c(Br)c(Br)c(Cl)c2[nH]nnc12 [5,6-Br2-4,7-Cl2Bt] | – | – | – | – | – | – | – | – | – | – | – | – | – | – | – | – | – | affinity to hCK2α among the four isomeric dibromo–dichlorobenzotriazoles [11]: highest affinity |
